Measurements published in patent US20260240914A1, “MENIN-MLL INHIBITORS AND COMPOSITIONS FOR PROLIFERATION OF BETA CELLS” (BIOMEA FUSION, INC., priority 2022, published 2026).

Experiments:
Type in all cases: cell-based
[1] = system: human islet beta cells; experiment: Total insulin content of human islet microtissues (insulin ELISA of lysates)
Procedure: (§1) The ability of menin-MLL inhibitors to induce beta cell proliferation is tested on human islet microtissue preparations (InSphero). Briefly, human islet microtissues are produced by enzymatic dissociation of the primary islet cells followed by controlled scaffold-free hanging-drop-based self-reaggregation of the islet cells (Misun et al., 2020, Adv. Biosyst. 2020, 4, 1900291). The process helps eliminate contaminating exocrine cells, while enabling homogenous and native-like distribution of endocrine cells within each islet microtissue. Islet microtissues generated by this process are uniform in size, and cellular composition, long lived, functionally robust and display long-term and stable functionality and viability during in vitro culture (Misun et al., 2020, Adv. Biosyst. 2020, 4, 1900291). […]
(§2) At the described termination point (1, 2, or 3 weeks), culture media supernatants were collected for measurement of chronic insulin secretion (insulin secreted since last medium exchange, i.e. 72 hours in this project). […] Tissues were next analyzed for total ATP content using the Promega CellTiter-Glo® Luminescent Cell Viability Assay. […] Supernatants and lysates were appropriately diluted and total and secreted insulin were quantified using ALPCO Stellux® Chemi Human Insulin ELISA.

[2] = system: human pancreatic islet beta cells; experiment: Beta cell proliferation in human islet microtissues (EdU / NKX6.1 3D staining and microscopy); settings: for proliferating beta cell fraction (EdU+NKX6.1+/NKX6.1 %): 0.3 μM
Procedure: The ability of menin-MLL inhibitors to induce beta cell proliferation is tested on human islet microtissue preparations (InSphero). Briefly, human islet microtissues are produced by enzymatic dissociation of the primary islet cells followed by controlled scaffold-free hanging-drop-based self-reaggregation of the islet cells (Misun et al., 2020, Adv. Biosyst. 2020, 4, 1900291). The process helps eliminate contaminating exocrine cells, while enabling homogenous and native-like distribution of endocrine cells within each islet microtissue. Islet microtissues generated by this process are uniform in size, and cellular composition, long lived, functionally robust and display long-term and stable functionality and viability during in vitro culture (Misun et al., 2020, Adv. Biosyst. 2020, 4, 1900291). The methodology confirms primary human beta cells can be cultured long term (few weeks) under ex-vivo culture conditions to enable beta cell expansion ex-vivo.
Islet microtissues (MTs) were aggregated for 5 days and then released into ultra-low attachment plates. Half of the plates were maintained in standard culture medium (5.5 mM glucose), and half were cultured in high-glucose culture medium (GTX, 8 mM glucose) starting at Day 9, for the duration of the whole experiment. Starting on Day 12 (after 3 days of GTX pre-treatment for the relevant plates), dosing with compound 10, a representative irreversible menin-MLL inhibitor, was initiated, using a Tecan D300e Digital Dispenser for harmine and Biomea compound. DMSO was normalized by volume across all wells. Media was exchanged and compounds redosed every 2-3 days throughout the experiment. EdU was included during the final 4 days of each treatment period. Compound dosing was randomized; to avoid compound cross-contamination between wells, all media exchanges were performed using 96-well deep-well plates with pipette tip exchange.
Proliferating cells were labeled in 3D by incubating MTs with […] EdU during the final 4 days of compound treatment. At the described termination point (1, 2, or 3 weeks), MTs were washed twice with PBS, fixed for 15 min in 4% PFA, washed twice more with PBS and stored in PBS with 0.05% sodium azide until staining. Islet MTs were then permeabilized with permeabilization buffer (Triton® X-100, 0.5% in PBS w/o Mg2+Ca2+) and washed twice with PBS. EdU was labeled using the Click-it reaction (Click-iT™ EdU Alexa Fluor™ 647 HCS Assay, Thermo Fisher). MTs were washed twice with PBS and blocked with 10% FCS solution to prevent nonspecific antibody binding, before overnight incubation with rabbit mAB NKX6.1 [EPR20405] (Abcam, ab221549) at a 1:200 dilution in antibody dilution buffer (10% FCS, 0.2% Triton® X-100 in PBS w/o Mg2+Ca2+) as a […]. Goat anti-rabbit secondary antibody AF568 (ThermoFisher A11036) was used as secondary antibody at a 1:200 dilution in antibody dilution buffer, along with DAPI. Finally, islet MTs were transferred into Akura 384-well plates and cleared with ScaleS4 for 3D imaging. Images were acquired using the Yokogawa CQI Benchtop High-Content Analysis System, taking fluorescent images in […] z-steps in blue, red and far-red channels. DAPI-, NKX6.1- and EdU-positive nuclei and signal colocalization were quantified in 3D using a customized CellPathfinder pipeline. Proliferating cells and proliferating-cells were manually counted to validate automated results. Statistical significance was determined with One-way ANOVA and Dunnett's multiple comparisons test, rejecting the null hypothesis at p=0.05. Outliers were detected with ROUT's outlier test (Q=5%). No outlier test was applied to the proliferating cells.

[3] = system: human islet beta cells; experiment: Glucose stimulated insulin secretion assay in human islet microtissues
Procedure: as §1, §2

[4] = system: human islet microtissues; experiment: Total ATP content of human islet microtissues (CellTiter-Glo cell viability); settings: 0.075 μM, 0.15 μM and 0.3 μM; 1, 2 or 3 weeks; through the duration of the assay
Procedure: as §1, §2

[5] = standard glucose culture conditions (5.5 mM glucose)
[6] = compound 10 treatment, dose-dependent

Q: With `C=CC(=O)N[C@@H]1CCCN(Cc2ccnc(C(=O)Nc3ccc(-c4cc5c(N6CCOCC6)ncnc5[nH]4)cc3)c2)C1` (racemic) [Compound 10] as the compound, how does the “beta cell insulin content” value ([1]; high glucose conditions (8 mM glucose), treated for 2 and 3 weeks, vs vehicle control (DMSO)) read?
A: dose dependent increase

Q: And the total insulin content [1, 5]?
A: largely unchanged

Q: And the “proliferation at all three concentrations” value ([2]; 0.075 μM, 0.15 μM, and 0.3 μM, 7, 14, 21 days, reached highest by day 21)?
A: increase in proliferation

Q: And the “proliferating beta cell fraction (EdU+NKX6.1+/NKX6.1 %)” value ([2]; Day 14 of culture, compared to DMSO control (FIG. 1, graphs B))?
A: substantially

Q: What about the “proliferating beta cell fraction (EdU+NKX6.1+/NKX6.1 %)” value ([2]; Day 21 of culture, compared to DMSO control (FIG. 2, graphs B)) of the same compound?
A: substantially

Q: And the Total cell proliferation ([2]; compared to DMSO control)?
A: not increased

Q: And the “Total β-cell count” value [2, 6]?
A: significantly increased

Q: And the “β-cell fraction (NKX6.1+/DAPI+ %)” value [2, 6]?
A: significantly increased

Q: And the “β-cell proliferation relative to solvent control” value ([2]; high glucose medium (8 mM glucose), 0.075 μM, 0.15 μM, and 0.3 μM, more pronounced than in standard medium)?
A: dose dependent increase

Q: What about the “glucose stimulated insulin secretion” value ([3]; high glucose conditions (8 mM glucose), compared to vehicle treatment) of the same compound?
A: improved

Q: What about the “glucose stimulated insulin secretion (improvement)” value [3, 5] of the same compound?
A: not observed

Q: And the “viability as revealed by ATP content readout” value [4]?
A: good viability
